Results published in patent US20130196052A1, “ANTIMICROBIAL/ANTIBACTERIAL MEDICAL DEVICES COATED WITH TRADITIONAL CHINESE MEDICINES” (ETHICON, INC., priority 2009, published 2013).

Key:
[1] = Particle size analysis by laser diffraction; type: physicochemical; conditions: commercial grade, needle-like crystals
Method: Studies were run using sutures coated with the sodium houttuyfonate antimicrobial coatings disclosed herein, with the sodium houttuyfonate coatings prepared using either ground or unground sodium houttuyfonate. The sutures were coated at two coating levels, using the coating method described hereinabove. Particle size analysis was performed using a Beckman Coulter model LS 320 laser diffraction particle size analyzer. Results for these studies are presented below in Tables 5-7 and graphically depicted in FIGS. 1 and 2.

[2] = test system: Micrococcus catarrhalis, Staphylococcus aureus, Bacillus influenzae, pneumococcus, Escherichia coli, Bacillus dysenteria, Bacillus proteus, Bacillus …; conditions: in words; cited from earlier work
[3] = in words; cited from earlier work
[4] = test system: Bacillus typhi, and Leptopira; conditions: in words; cited from earlier work
[5] = cited from earlier work
[6] = test system: susceptible strains; conditions: in words; cited from earlier work

## CCCCCCCCCC(=O)CC(O)S(=O)(=O)O (centres unmarked) [Commercial grade sodium houttuyfonate, sodium houttuyfonate]
[1]
  particle size distribution, mean: approximately 145 μm

## CCCCCCCCCC(=O)CC=O [Houttuynin, decanoyl acetaldehyde]
[2]
  inhibitory effect in vitro: marked inhibitory effect
[3]
  stability: unstable and prone to polymerize
[4]
  effect in vitro: strong effect

## CCCCCCCCCC(=O)CC(O)S(=O)(=O)O (centres unmarked) [sodium houttuyfonate]
[3]
  stability: more stable
[5]; cold water
  solubility in cold water: only slightly soluble
[5]; organic solvents such as acetonitrile and methanol
  solubility in most organic solvents: only slightly soluble

## Oc1cc(Cl)ccc1Oc1ccc(Cl)cc1Cl [triclosan]
[6]
  mode of antibacterial activity: predominantly bacteriostatic activity
